According to ChEMBL document CHEMBL2146446, “3-Hydroxy-1-alkyl-2-methylpyridine-4(1H)-thiones: Inhibition of the Pseudomonas aeruginosa Virulence Factor LasB” (ACS Med Chem Lett, 2012):
The source made the active and inactive calls. The rule behind the calls is not given here.

How the values were obtained:
Elastase = Elastase (Pseudomonas aeruginosa (strain ATCC 15692 / PAO1 / 1C / PRS 101 / LMG12228), UniProt P14756); assay: (§1) Antagonist activity at Pseudomonas aeruginosa LasB using Abz-Ala-Gly-Leu-Ala-p-Nitro-Benzyl-Amide as substrate incubated for 30 mins prior to substrate addition by FRET assay; type: functional
[1] = molecular target: Elastase (Pseudomonas aeruginosa (strain ATCC 15692 / PAO1 / 1C / PRS 101 / LMG12228)) (UniProt P14756); assay: Antagonist activity at Pseudomonas aeruginosa PA14 LasB assessed as inhibition of swarming at 25 uM after 16 hrs swarming motility assay relative to control; type: functional
[2] = Metabolic stability in tryptic soy broth assessed as decomposition at 50 uM after 48 hrs; type: physicochemical
Pseudomonas aeruginosa = assay: Toxicity against Pseudomonas aeruginosa PA14 assessed as viability at 25 uM by spectrophotometry; type: organism-based; settings: read-out: Activity
[3] = Metabolic stability in tryptic soy broth assessed as S-oxidation at 50 uM after 48 hrs; type: physicochemical
[4] = molecular target: Elastase (Pseudomonas aeruginosa (strain ATCC 15692 / PAO1 / 1C / PRS 101 / LMG12228)) (UniProt P14756); assay: as §1; type: functional

Chain of Elastase (Pseudomonas aeruginosa (strain ATCC 15692 / PAO1 / 1C / PRS 101 / LMG12228)) (P14756 198-498 limits assumed): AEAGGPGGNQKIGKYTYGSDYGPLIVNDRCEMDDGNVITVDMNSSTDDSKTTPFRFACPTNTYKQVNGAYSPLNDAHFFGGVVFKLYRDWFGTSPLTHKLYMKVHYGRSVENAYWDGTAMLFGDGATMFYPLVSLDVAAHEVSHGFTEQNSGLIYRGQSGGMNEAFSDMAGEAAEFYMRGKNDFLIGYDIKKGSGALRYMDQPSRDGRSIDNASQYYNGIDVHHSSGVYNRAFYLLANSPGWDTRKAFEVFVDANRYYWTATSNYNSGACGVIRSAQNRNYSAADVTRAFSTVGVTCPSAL
Chain of Elastase (P14756 whole entry): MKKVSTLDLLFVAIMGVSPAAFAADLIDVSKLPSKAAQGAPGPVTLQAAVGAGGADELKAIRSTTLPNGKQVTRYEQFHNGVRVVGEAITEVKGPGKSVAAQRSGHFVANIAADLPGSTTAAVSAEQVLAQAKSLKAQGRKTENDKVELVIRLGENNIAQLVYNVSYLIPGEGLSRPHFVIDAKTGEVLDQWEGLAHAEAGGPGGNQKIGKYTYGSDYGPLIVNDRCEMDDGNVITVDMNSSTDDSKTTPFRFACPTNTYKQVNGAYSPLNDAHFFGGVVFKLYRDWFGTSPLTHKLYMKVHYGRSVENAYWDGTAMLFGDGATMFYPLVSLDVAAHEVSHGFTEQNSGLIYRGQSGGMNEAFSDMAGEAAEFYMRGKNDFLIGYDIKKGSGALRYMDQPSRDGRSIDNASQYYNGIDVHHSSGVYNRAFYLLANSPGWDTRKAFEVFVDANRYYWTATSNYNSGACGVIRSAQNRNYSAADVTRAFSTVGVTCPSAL

In the case of `Cc1c(O)c(=S)ccn1Cc1ccc(-c2ccc(F)c(F)c2)cc1`, the IC50 (Elastase) is reported as 3.34 µM, the Activity [1] is reported as “Active” and the Stability [2] is reported as “Stable”. The viability at 25 µM (Pseudomonas aeruginosa) was 95% and the Stability [3] was “Stable”.
Work on `Cc1c(O)c(=S)ccn1Cc1ccc(-c2ccc(Cl)cc2)cc1` yielded an IC50 (Elastase) of 5.27 µM.
In the case of `CCc1c(O)c(=S)ccn1CC`, the Activity [4] is reported as “Dose-dependent effect”.
In the case of `Cc1c(O)c(=S)ccn1Cc1ccc(-c2ccc3c(c2)OCO3)cc1`, the IC50 (Elastase) is reported as 3.58 µM.
Work on `Cc1ccc(-c2ccc(Cn3ccc(=S)c(O)c3C)cc2)cc1` yielded an IC50 (Elastase) of 6.72 µM.
With `COc1ccc(-c2ccc(Cn3ccc(=S)c(O)c3C)cc2)cc1` the IC50 (Elastase) was 8.58 µM.
With `Cc1c(O)c(=S)ccn1Cc1ccc(-c2ccc(F)cc2)cc1` the IC50 (Elastase) was 4.65 µM.
For `O=C(Cc1cccc(F)c1)NO`, the Activity [4] was “Dose-dependent effect”, the IC50 (Elastase) was 16.4 µM and the Activity [1] was “inactive”. The Stability [2] was “Unstable” and the Stability [3] was “Unstable”.
In the case of `Cc1c(O)c(=S)ccn1C`, the Activity [4] is reported as “Dose-dependent effect”.
With `Cn1cccc(O)c1=S` the Activity [4] was “Dose-dependent effect” and the IC50 (Elastase) was 220 µM.
For `Cc1c(O)c(=S)ccn1Cc1ccc(-c2ccccc2)cc1`, the IC50 (Elastase) was 2.73 µM, the Activity [1] was “Active” and the Stability [2] was “Stable”. The viability at 25 µM (Pseudomonas aeruginosa) was 95% and the Stability [3] was “Stable”.
In the case of `O=C(Cc1ccccc1)NO` [PHENYLACETOHYDROXAMIC ACID], the Activity [4] is reported as “Dose-dependent effect”, the IC50 (Elastase) is reported as 13.6 µM and the Activity [1] is reported as “inactive”. For the same molecule, the Stability [2] was “Unstable” and the Stability [3] was “Unstable”.
For `CCn1ccc(=S)c(O)c1C`, the Activity [4] was “Dose-dependent effect” and the IC50 (Elastase) was 88.5 µM.
